Measurements reported in the supplement of paper PMC11061612.

Legend:
Assay in all cases: combination Emax (second highest fraction inhibited in the dose matrix, 72 h); higher = more inhibition; extreme values may be limits of the assay
[1] = test system: CAPAN-1 (Pancreatic Carcinoma)
Procedure, shortened: (§1)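 Cell lines grown in DMEM/F12 or RPMI with 10% FBS were plated in 1536-well plates and held 24 hours at 37°C, 5% CO2 before 72 hours of exposure to two-drug dose matrices, with DMSO typically at 0.2%. CellTiter-Glo 2.0 luminescence gave viability, which was converted to inhibition. Vehicle wells were set to 0 and blank wells to 1. Combination Emax is the second-highest inhibition in the matrix, and Bliss excess is the observed combination effect minus the expected EA + EB − EA·EB, where EA and EB are the single-agent effects.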

[2] = test system: CAL-54 (Kidney Carcinoma)
Procedure, shortened: as §1

[3] = test system: RKO (Colorectal Carcinoma)
Procedure, shortened: as §1

[4] = test system: RPMI-6666 (Non-Cancerous)
Procedure, shortened: as §1

NCI-H2461 (Mesothelioma) = test system: NCI-H2461 (Mesothelioma)
Procedure, shortened: as §1

[5] = test system: MDA-MB-468 (Breast Carcinoma)
Procedure, shortened: as §1

[6] = test system: PCI-30 (Head and Neck Carcinoma)
Procedure, shortened: as §1

[7] = test system: HDLM-2 (Hodgkin's Lymphoma)
Procedure, shortened: as §1

SH-4 (Melanoma) = test system: SH-4 (Melanoma)
Procedure, shortened: as §1

[8] = test system: SK-OV-3 (Ovarian Carcinoma)
Procedure, shortened: as §1

[9] = test system: LoVo (Colorectal Carcinoma)
Procedure, shortened: as §1

HMV-II (Melanoma) = test system: HMV-II (Melanoma)
Procedure, shortened: as §1

[10] = test system: HARA (Squamous Cell Lung Carcinoma)
Procedure, shortened: as §1

[11] = test system: EN (Endometrial Carcinoma)
Procedure, shortened: as §1

[12] = test system: LU-139 (Small Cell Lung Carcinoma)
Procedure, shortened: as §1

[13] = test system: SW1271 (Small Cell Lung Carcinoma)
Procedure, shortened: as §1

[14] = test system: RT-112 (Bladder Carcinoma)
Procedure, shortened: as §1

[15] = test system: 8305C (Thyroid Gland Carcinoma)
Procedure, shortened: as §1

[16] = test system: OC-314 (Ovarian Carcinoma)
Procedure, shortened: as §1

[17] = test system: SU-DHL-6 (B-Cell Non-Hodgkin's Lymphoma)
Procedure, shortened: as §1

| SMILES | combination Emax [1] | combination Emax [2] | combination Emax [3] | combination Emax [4] | combination Emax (NCI-H2461 (Mesothelioma)) | combination Emax [5] | combination Emax [6] | combination Emax [7] | combination Emax (SH-4 (Melanoma)) | combination Emax [8] | combination Emax [9] | combination Emax (HMV-II (Melanoma)) | combination Emax [10] | combination Emax [11] | combination Emax [12] | combination Emax [13] | combination Emax [14] | combination Emax [15] | combination Emax [16] | combination Emax [17] |
| --- | --- | --- | --- | --- | --- | --- | --- | --- | --- | --- | --- | --- | --- | --- | --- | --- | --- | --- | --- | --- |
| C=CCn1c(=O)c2cnc(Nc3ccc(N4CCN(C)CC4)cc3)nc2n1-c1cccc(C(C)(C)O)n1 [AZD1775] + Nc1ccn([C@@H]2O[C@H](CO)[C@@H](O)C2(F)F)c(=O)n1 [Gemcitabine] (first compound max 1 µM, partner max 0.3 µM) | 0.697 | 0.787 | 0.882 | 0.917 | 0.63 | 0.733 | 0.677 | 0.763 | 0.577 | 0.583 | 0.808 | 0.632 | 0.912 | 0.581 | 0.795 | 0.617 | 0.956 | 0.574 | 0.972 | 0.958 |
| CN(CCO)CC[C@H](CSc1ccccc1)Nc1ccc(S(=O)(=O)NC(=O)c2ccc(N3CCC([C@@H](O)c4ccccc4-c4ccc(Cl)cc4)CC3)cc2)cc1S(=O)(=O)C(F)(F)F [AZD4320] + CC(=O)O[C@H]1C(=O)[C@@]2(C)[C@H]([C@H](OC(=O)c3ccccc3)[C@]3(O)C[C@H](OC(=O)[C@H](O)[C@@H](NC(=O)c4ccccc4)c4ccccc4)C(C)=C1C3(C)C)[C@]1(OC(C)=O)CO[C@@H]1C[C@@H]2O [Paclitaxel] (first compound max 1 µM, 7x7, partner max 3 µM) | 0.874 | 0.773 | 1 | 1 | 0.75 | 0.881 | 0.875 | 1 | 0.531 | 0.978 | 0.746 | 0.853 | 0.999 | 0.757 | 0.964 | 0.927 | 0.991 | 0.846 | 1 | 1 |
| CN(CCO)CC[C@H](CSc1ccccc1)Nc1ccc(S(=O)(=O)NC(=O)c2ccc(N3CCC([C@@H](O)c4ccccc4-c4ccc(Cl)cc4)CC3)cc2)cc1S(=O)(=O)C(F)(F)F [AZD4320] + CS(=O)(=O)CCNCc1ccc(-c2ccc3ncnc(Nc4ccc(OCc5cccc(F)c5)c(Cl)c4)c3c2)o1 [Lapatinib] (first compound max 1 µM, 7x7, partner max 10 µM) | 0.6 | 0.951 | 0.477 | 0.951 | 0.512 | 0.963 | 0.369 | 0.985 | 0.239 | 0.869 | 0.562 | 0.773 | 0.906 | 0.229 | 0.985 | 0.484 | 0.351 | 0.677 | 0.729 | 0.997 |
| CN(CCO)CC[C@H](CSc1ccccc1)Nc1ccc(S(=O)(=O)NC(=O)c2ccc(N3CCC([C@@H](O)c4ccccc4-c4ccc(Cl)cc4)CC3)cc2)cc1S(=O)(=O)C(F)(F)F [AZD4320] + C[C@@H](Nc1cc(F)cc(F)c1)c1cc(C(=O)N(C)C)cc2c(=O)cc(N3CCOCC3)oc12 [AZD8186] (first compound max 1 µM, 7x7, partner max 3 µM) | 0.552 | 0.593 | 0.32 | 0.996 | 0.337 | 0.789 | 0.321 | 0.847 | 0.308 | 0.407 | 0.6 | 0.383 | 0.361 | 0.354 | 0.943 | 0.649 | 0.435 | 0.669 | 0.433 | 1 |
| CN(CCO)CC[C@H](CSc1ccccc1)Nc1ccc(S(=O)(=O)NC(=O)c2ccc(N3CCC([C@@H](O)c4ccccc4-c4ccc(Cl)cc4)CC3)cc2)cc1S(=O)(=O)C(F)(F)F [AZD4320] + Nc1ccn([C@@H]2O[C@H](CO)[C@@H](O)C2(F)F)c(=O)n1 [Gemcitabine] (first compound max 1 µM, 7x7, partner max 0.3 µM) | 0.828 | 0.838 | 0.928 | 0.985 | 0.641 | 0.799 | 0.743 | 0.935 | 0.642 | 0.308 | 0.7 | 0.619 | 0.8 | 0.337 | 0.961 | 0.872 | 0.507 | 0.625 | 0.989 | 0.998 |
| Cc1c2c(nn1C)CSCc1cc(n(C)n1)CSc1cc(c3ccccc3c1)OCCCc1c(C(=O)O)n(C)c3c-2c(Cl)ccc13 [AZD5991] + CC(=O)O[C@H]1C(=O)[C@@]2(C)[C@H]([C@H](OC(=O)c3ccccc3)[C@]3(O)C[C@H](OC(=O)[C@H](O)[C@@H](NC(=O)c4ccccc4)c4ccccc4)C(C)=C1C3(C)C)[C@]1(OC(C)=O)CO[C@@H]1C[C@@H]2O [Paclitaxel] (first compound max 1 µM, 7x7, partner max 3 µM) | 0.681 | 0.584 | 1 | 0.979 | 0.443 | 0.79 | 0.394 | 0.996 | 0.472 | 0.54 | 0.655 | 0.598 | 0.982 | 0.878 | 0.649 | 0.472 | 1 | 0.732 | 0.995 | 1 |
